In PubChem BioAssay AID220 (DTP/NCI, 2004) one finds T/C data, which are given here for 15 compounds.

“And” between values parts separate entries of the source, which are not always exact repeats. Equal entries are not always repeated. Records with an inconclusive call do not appear.

The experiment deals with CD8F1 mice, subcutaneous mammary adenocarcinoma, T/C%. Kind of experiment: NCI In Vivo Anticancer Drug Screen. Data for tumor model Mammary Adenocarcinoma CD8F1 (subcutaneous) in CD8F1. As to conditions: higher = larger tumour. In outline:
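Compound-treated versus vehicle-treated mice with transplantable tumors; survival or tumor size compared as T/C.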

The mark [1] stands for this setting: endpoint: median tumor weight change, dose: 125.0 mg/kg/injection, schedule: Q01DX001 (ip), vehicle: saline.
[2] abbreviates: endpoint: median tumor weight change, dose: 62.5 mg/kg/injection, schedule: Q01DX001 (ip), vehicle: saline with Tween-80.
Setting [3] is: endpoint: median tumor weight change, dose: 125.0 mg/kg/injection, schedule: Q01DX001 (ip), vehicle: saline with Tween-80.
Where [4] appears, read: endpoint: median tumor weight change, dose: 250.0 mg/kg/injection, schedule: Q01DX001 (ip), vehicle: saline with Tween-80.
Where [5] appears, read: endpoint: median tumor weight change, dose: 500.0 mg/kg/injection, schedule: Q01DX001 (ip), vehicle: saline with Tween-80.
[6] abbreviates: endpoint: median tumor weight change, dose: 250.0 mg/kg/injection, schedule: Q01DX001 (ip), vehicle: saline.
[7] abbreviates: endpoint: median tumor weight change, dose: 500.0 mg/kg/injection, schedule: Q01DX001 (ip), vehicle: saline.
Where [8] appears, read: endpoint: median tumor weight change, dose: 1000.0 mg/kg/injection, schedule: Q01DX001 (ip), vehicle: saline.

Turning to `N=C(N)CCCCCCCCC(=N)N`, the T/C (endpoint: median tumor weight (est.), dose: 3.12 mg/kg/injection, schedule: Q07DX005 (ip), vehicle: Klucel (hydroxypropylcellulose) (HPC)) is 67 % of control; the T/C (endpoint: median tumor weight (est.), dose: 3.12 mg/kg/injection, schedule: Q07DX005 (ip), vehicle: saline) was 86 % of control; the T/C (endpoint: median tumor weight (est.), dose: 6.25 mg/kg/injection, schedule: Q07DX005 (ip), vehicle: Klucel (hydroxypropylcellulose) (HPC)) is 123 % of control; the T/C (endpoint: median tumor weight (est.), dose: 6.25 mg/kg/injection, schedule: Q07DX005 (ip), vehicle: saline) is 78 % of control; the T/C (endpoint: median tumor weight (est.), dose: 12.5 mg/kg/injection, schedule: Q07DX005 (ip), vehicle: Klucel (hydroxypropylcellulose) (HPC)) is 34 % of control; the T/C (endpoint: median tumor weight (est.), dose: 12.5 mg/kg/injection, schedule: Q07DX005 (ip), vehicle: saline) was 76 % of control. For the same compound, the T/C is 31 % of control (endpoint: median tumor weight (est.), dose: 25.0 mg/kg/injection, schedule: Q07DX005 (ip), vehicle: Klucel (hydroxypropylcellulose) (HPC)); 28 % of control (endpoint: median tumor weight (est.), dose: 25.0 mg/kg/injection, schedule: Q07DX005 (ip), vehicle: saline); 61 % of control (endpoint: median tumor weight change, dose: 8.0 mg/kg/injection, schedule: Q01DX001 (ip), vehicle: saline); 77 % of control (endpoint: median tumor weight change, dose: 15.63 mg/kg/injection, schedule: Q01DX001 (ip), vehicle: saline); 186 % of control (endpoint: median tumor weight change, dose: 16.0 mg/kg/injection, schedule: Q01DX001 (ip), vehicle: saline); 76 % of control (endpoint: median tumor weight change, dose: 31.25 mg/kg/injection, schedule: Q01DX001 (ip), vehicle: saline). The T/C (endpoint: median tumor weight change, dose: 32.0 mg/kg/injection, schedule: Q01DX001 (ip), vehicle: saline) was 48 % of control.

On to `NNC(=O)c1ccncc1`, for which the T/C was 78 % of control (endpoint: median tumor weight change, dose: 62.0 mg/kg/injection, schedule: Q01DX001 (ip), vehicle: saline) and 70 % of control under setting [1].

As for `C=C1C(=O)C2=CC1CCC(=O)C1(C)CCC(OC(C)=O)C(C)(C)C1CC2O` (centres undefined), the T/C is, setting by setting: (endpoint: median tumor weight change, dose: 37.5 mg/kg/injection, schedule: Q01DX001 (ip), vehicle: Klucel (hydroxypropylcellulose) (HPC)) 83 % of control; (endpoint: median tumor weight change, dose: 75.0 mg/kg/injection, schedule: Q01DX001 (ip), vehicle: Klucel (hydroxypropylcellulose) (HPC)) 88 % of control; (endpoint: median tumor weight change, dose: 150.0 mg/kg/injection, schedule: Q01DX001 (ip), vehicle: Klucel (hydroxypropylcellulose) (HPC)) 30 % of control.

For `NS(=O)(=O)OCCCCCCCOS(N)(=O)=O`, the T/C is 66 % of control (endpoint: median tumor weight change, dose: 62.0 mg/kg/injection, schedule: Q01DX001 (ip), vehicle: saline with Tween-80); 22 % of control under setting [2]; 33 % of control and 34 % of control under setting [3]; -27 % of control and -36 % of control under setting [4].

Turning to `COC1=C(OC)C(=O)C(Sc2ccc3ccccc3c2)=CC1=O`, the T/C is 115 % of control (endpoint: median tumor weight (est.), dose: 12.5 mg/kg/injection, schedule: Q07DX005 (ip), vehicle: saline with Tween-80); 84 % of control (endpoint: median tumor weight (est.), dose: 25.0 mg/kg/injection, schedule: Q07DX005 (ip), vehicle: saline with Tween-80); 122 % of control (endpoint: median tumor weight (est.), dose: 50.0 mg/kg/injection, schedule: Q07DX005 (ip), vehicle: saline with Tween-80); 92 % of control (endpoint: median tumor weight (est.), dose: 200.0 mg/kg/injection, schedule: Q07DX005 (ip), vehicle: saline with Tween-80).

`Nc1ccc(S(=O)(=O)Nc2cnc3c(Cl)cccc3n2)cc1`: the T/C is 96 % of control (endpoint: median tumor weight change, dose: 125.0 mg/kg/injection, schedule: Q01DX001 (ip), vehicle: DMSO); 102 % of control and 121 % of control (endpoint: median tumor weight change, dose: 500.0 mg/kg/injection, schedule: Q01DX001 (ip), vehicle: DMSO); 102 % of control (endpoint: median tumor weight change, dose: 2000.0 mg/kg/injection, schedule: Q01DX001 (ip), vehicle: DMSO).

In the case of `CN1CCN(c2ccc([N+](=O)[O-])c3no[n+]([O-])c23)CC1`, the T/C (endpoint: median tumor weight (est.), dose: 5.0 mg/kg/injection, schedule: Q07DX005 (ip), vehicle: saline with Tween-80) was 95 % of control; the T/C (endpoint: median tumor weight (est.), dose: 10.0 mg/kg/injection, schedule: Q07DX005 (ip), vehicle: saline with Tween-80) is 115 % of control; the T/C (endpoint: median tumor weight (est.), dose: 20.0 mg/kg/injection, schedule: Q07DX005 (ip), vehicle: saline with Tween-80) is 75 % of control.

`COC1(OC)C2C=CC1CC2`: the T/C by setting is: under setting [2], 94 % of control; under setting [3], 82 % of control; under setting [4], 107 % of control; under setting [5], 58 % of control.

Consider `F[B-](F)(F)F`, for which the T/C (endpoint: median tumor weight (est.), dose: 12.5 mg/kg/injection, schedule: Q07DX005 (ip), vehicle: gum acacia) was 109 % of control; the T/C (endpoint: median tumor weight (est.), dose: 25.0 mg/kg/injection, schedule: Q07DX005 (ip), vehicle: gum acacia) was 88 % of control; the T/C (endpoint: median tumor weight (est.), dose: 50.0 mg/kg/injection, schedule: Q07DX005 (ip), vehicle: gum acacia) is 83 % of control; the T/C (endpoint: median tumor weight (est.), dose: 100.0 mg/kg/injection, schedule: Q07DX005 (ip), vehicle: gum acacia) was 96 % of control; the T/C (endpoint: median tumor weight (est.), dose: 200.0 mg/kg/injection, schedule: Q07DX005 (ip), vehicle: gum acacia) was 74 % of control; the T/C (endpoint: median tumor weight (est.), dose: 400.0 mg/kg/injection, schedule: Q07DX005 (ip), vehicle: gum acacia) was 90 % of control.

For the compound `CCOC(=O)C1=C(C#N)C2(CCC(OCc3ccccc3)CC2)C(=O)O1` (centres undefined), the T/C is 66 % of control (endpoint: median tumor weight change, dose: 125.0 mg/kg/injection, schedule: Q01DX001 (ip), vehicle: suspension in saline); 63 % of control (endpoint: median tumor weight change, dose: 250.0 mg/kg/injection, schedule: Q01DX001 (ip), vehicle: suspension in saline); 50 % of control (endpoint: median tumor weight change, dose: 500.0 mg/kg/injection, schedule: Q01DX001 (ip), vehicle: suspension in saline); 24 % of control (endpoint: median tumor weight change, dose: 1000.0 mg/kg/injection, schedule: Q01DX001 (ip), vehicle: suspension in saline).

On to `CSC1SCC2C(=O)N(C)C(C(C)C)C(=O)OCC(NC(=O)c3cnc4ccccc4n3)C(=O)NC(C)C(=O)N(C)C1C(=O)N(C)C(C(C)C)C(=O)OCC(NC(=O)c1cnc3ccccc3n1)C(=O)NC(C)C(=O)N2C` (centres undefined), for which the T/C (endpoint: mean tumor weight, dose: 7.5 micrograms/kg/injection, schedule: Q07DX005 (ip), vehicle: saline) was 67 % of control; the T/C (endpoint: mean tumor weight, dose: 15.0 micrograms/kg/injection, schedule: Q07DX005 (ip), vehicle: saline) was 83 % of control; the T/C (endpoint: median tumor weight (est.), dose: 7.5 micrograms/kg/injection, schedule: Q07DX005 (ip), vehicle: saline) was 82 % of control; the T/C (endpoint: median tumor weight (est.), dose: 15.0 micrograms/kg/injection, schedule: Q07DX005 (ip), vehicle: saline) was 67 % of control; the T/C (endpoint: median tumor weight (est.), dose: 30.0 micrograms/kg/injection, schedule: Q07DX005 (ip), vehicle: saline) is 97 % of control; the T/C (endpoint: median tumor weight (est.), dose: 60.0 micrograms/kg/injection, schedule: Q07DX005 (ip), vehicle: saline) is 117 % of control. The T/C (endpoint: median tumor weight (est.), dose: 120.0 micrograms/kg/injection, schedule: Q07DX005 (ip), vehicle: saline) was 76 % of control.

For `CCOC(=O)c1cn(C)c2c1C(O)=C(C(=O)OC)CC(=O)N2`, the T/C was 79 % of control under setting [3]; 97 % of control under setting [4]; 83 % of control under setting [5]; 95 % of control (endpoint: median tumor weight change, dose: 1000.0 mg/kg/injection, schedule: Q01DX001 (ip), vehicle: saline with Tween-80).

In the case of `C/C(=N\NC(N)=O)c1cccc(/C(C)=N/NC(N)=O)n1`, the T/C is, setting by setting: under setting [2], 64 % of control; under setting [3], 53 % of control; under setting [4], 48 % of control.

For `C=C(NC(=O)C(=C)NC(=O)c1csc(C2=NC3c4csc(n4)C4NC(=O)c5csc(n5)C(C(C)(O)C(C)O)NC(=O)C5CSC(=N5)/C(=C/C)NC(=O)C(C(C)O)NC(=O)c5csc(n5)C3(CC2)NC(=O)C(C)NC(=O)C(=C)NC(=O)C(=C)NC(=O)C(C(C)C)NC2C=Cc3c(C(C)O)cc(nc3C2O)C(=O)OC4C)n1)C(N)=O` (centres undefined), the T/C runs as follows: under setting [1], 156 % of control; under setting [6], 106 % of control; under setting [7], 110 % of control; under setting [8], 86 % of control.

`CC1=CC(=NN=c2cc(C)n([O-])c(C)c2)C=C(C)[N+]1=O`: the T/C by setting is: (endpoint: median tumor weight change, dose: 100.0 mg/kg/injection, schedule: Q01DX001 (ip), vehicle: suspension in saline) 76 % of control; under setting [3], 118 % of control; under setting [1], 55 % of control; (endpoint: median tumor weight change, dose: 200.0 mg/kg/injection, schedule: Q01DX001 (ip), vehicle: suspension in saline) 85 % of control; under setting [6], 117 % of control; (endpoint: median tumor weight change, dose: 400.0 mg/kg/injection, schedule: Q01DX001 (ip), vehicle: suspension in saline) 80 % of control. For the same compound, the T/C was 94 % of control under setting [5]; 100 % of control under setting [7]; 40 % of control (endpoint: median tumor weight change, dose: 800.0 mg/kg/injection, schedule: Q01DX001 (ip), vehicle: suspension in saline); 17 % of control under setting [8].
